Source: patent US20250134926A1, “COMPOSITION FOR ANTI-CANCER TREATMENT COMPRISING IMMUNOGENIC TUMOR-DERIVED EXTRACELLULAR VESICLES USING AN ENDOPLASMIC RETICULUM STRESS INDUCER AND METHOD FOR PRODUCING THE SAME” (priority 2023, published 2025)

System: melanoma cell line B16F10
Assay: MTT cytotoxicity evaluation of pretreatment substances
Type: cell-based, mouse
Details: for viability of tumor cells: B16F10, 24 hours
Procedure: To conduct the cytotoxicity evaluation of each pretreatment substance (tunicamycin and metformin) on the melanoma cell line B16F10, 3-(4,5-dimethylthiazol-2-yl)-2,5-diphenyltetrzolium bromide (MTT) assay was performed. First, 10^4 cells were seeded in each 96-well plate and cultured for 24 hours. Then, cells in each well were treated with each substance at a given concentration and cultured for an additional 24 hours. After the supernatant was discarded, the cells were treated with an MTT-containing medium at the concentration of 0.5 mg/ml and left for two hours, and the intracellular formazan crystals were dissolved in each well using dimethylsulfoxide. Then, the cytotoxicity was analyzed by measuring the absorbance at 570 nm by using a microplate reader.

tunicamycin
viability of tumor cells (concentrations of 0.05 μM or less): no significant decrease | viability of tumor cells (concentrations of 0.1 μM or more): decrease in cell viability | highest concentration at which no decrease in cell viability was observed (B16F10, MTT, 24 hours): 0.05 µM
